Assays:
[1] = test system: Male NMRI (SPF) mice fed a low-iron diet; assay: Fe utilization in iron-deficient mouse model (hemoglobin and body weight increase); type: in vivo; settings: for Utilization n 15 d (abs. %): mice, stomach tube, 2 mg iron/kg body weight/day, days 1-5 and 8-12, utilization on day 15; for iron utilization, Example according to the invention: comparison table, compounds of the invention
Protocol: The excellent Fe utilizations that can be accomplished through the Fe complexes according to the invention were measured by means of the following mouse model.
(In each case 6 animals per substance were used. There was a negative group (water) with 6 animals and as a positive group FeSO4 was used with 6 animals, too).
Male NMRI (SPF) mice (approximately 3 weeks old) were fed a low-iron diet (approx. 5 ppm iron) for approximately 3 weeks. The iron complexes were then administered to them by means of a stomach tube (2 mg iron/kg body weight/day) for 2 times 5 days, with an interruption of 2 days (days 1-5 and 8-12). Utilization on day 15 was calculated from the hemoglobin increase and the body weight increase in accordance with the formula
0.07=Factor for 70 ml blood per kg body weight (BW)
Hb1=Hemoglobin level (g/l) on day 1
Hb2(3)=Hemoglobin level (g/I) on day 8 (or 15)
BW4=body weight (g) on day 1
BW9(14)=body weight (g) on day 8 (or 15)
Hb1 Control=average hemoglobin level (g/l) on day 1 in the control group,
Hb2(3) Control=average hemoglobin level (g/l) on day 8 (or 15) in the control group,
BW4 Control=average body weight (g) on day 1 in the control group,
BW9(14) Control=average body weight (g) on day 8 (or 15) in the control group,
Fe Dos.=entire administered iron (mg Fe) over 5 or 10 days,
Δ Utilization=Fe tot. utilized (examined group)−Fe ut. Control group, utilized from food, (mg Fe)

[2] = Comparison of the pH-dependent solubility (photometric iron determination); type: physicochemical; settings: water, pH 6.5 (phthalate buffer 0.1 m), 4 h, 25° C.; for Solubility based on amount of iron: ">" = weighed amount completely dissolved
Excerpt: The pH was adjusted to 6.5 with a phthalate buffer (0.1 m). […] UV device type SPECORD 205 manufacturer Jena Analytik). This value represents the solubility of the iron complex. If the weighed amount of the iron complex was completely dissolved, the measured value was indicated by the prefix “>”.

Substance	Utilization n 15 d (abs. %) [1]	iron utilization, Example according to the invention ([1]; mouse model)	optical evaluation: dissolved? [2]	Solubility based on amount of iron [2]	iron utilization (statement in words) ([1]; mouse model)
Tris-(2,4-dioxo-4-(pyrrolidine-1-yl)butaneamide)-iron(III)-complex [Example 4]	92 abs. %	–	–	–	–
Tris-(4-(morpholine-4-yl)-2,4-dioxobutaneamide)-iron(III)-complex [Example 2]	75 abs. %	75%	–	–	–
Tris-(N,N,N′,N′-tetramethyl-2-oxobutanediamide)-iron(III)-complex [Example 5]	82 abs. %	82%	yes	>550 µg/mL	–
Tris-(N,N-Dimethyl-3,4-dioxo-4-(pyrrolidine-1-yl)butaneamide)-iron(III) complex [Example 11]	50 abs. %	–	–	–	–
Tris-(N^1,N^4,N^4-trimethyl-2-oxobutanediamide)-iron(III)-complex [Example 7]	68 abs. %	–	–	–	–
Tris-(N^1-(2-methoxyethyl)-N^4,N^4-dimethyl-2-oxobutanamid)-iron(III)-complex [Example 16]	65 abs. %	–	no	450 µg/mL	–
Tris-(N^1-[2-(dimethylamino)-2-oxoethyl]-N^1,N^4,N^4-trimethyl-2-oxobutanediamide)-iron(III)-complex [Example 18]	78 abs. %	–	no	580 µg/mL	–
Tris-(N^4,N^4-dimethyl-2-oxobutanediamide)-iron(III)-complex [Example 1]	98 abs. %	98%	yes	529 µg/mL	significantly improved iron utilization compared to Example 32 of WO11117225A1
Tris-(N^4-(2-hydroxyethyl)-N^1,N^1,N^4-trimethyl-2-oxobutanediamide)-iron(III)-complex [Example 21]	86 abs. %	86%	no	490 µg/mL	–
Tris-(N^4-(2-methoxyethyl)-N^1,N^1,N^4-trimethyl-2-oxobutanediamide)-iron(III)-complex [Example 13]	70 abs. %	–	yes	>520 µg/mL	–
Tris-(N^4-[2-(dimethylamino)-2-oxoethyl]-N^1,N^1,N^4-trimethyl-2-oxobutanediamide)-iron(III)-complex [Example 12]	80 abs. %	–	yes	>510 µg/mL	–
Tris-(ethyl-N-[4-(dimethylamino)-2,4-dioxobutanoyl]-N-methylglycinate)-iron(III)-complex [Example 17]	91 abs. %	–	no	470 µg/mL	–

From patent publication US9452152B2, “Fe(III) complex compounds for the treatment and prophylaxis of iron deficiency symptoms and iron deficiency anemias” (Vifor (International) AG, priority 2012, dated 2016)
